Test results reported in PubChem BioAssay AID256 (DTP/NCI, 2004).
Where “and” joins values, the source holds several entries; their conditions need not be identical. Identical values can stand only once. Inconclusive results and toxic doses are left out.

System: CD2F1 mice, L1210 leukemia ip, survival T/C
Experiment: NCI In Vivo Anticancer Drug Screen. Data for tumor model L1210 Leukemia (intraperitoneal) in CD2F1 (CDF1) mice
Details: higher = longer survival
How it was run: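 Ratio T/C, where T is the treated-group value and C the vehicle-dosed control value, from mice implanted with a transplantable tumor.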

[1] = endpoint: mean survival time, dose: 100.0 mg/kg/injection, schedule: Q04DX002 (ip), vehicle: Klucel (hydroxypropylcellulose) (HPC)
[2] = endpoint: mean survival time, dose: 200.0 mg/kg/injection, schedule: Q04DX002 (ip), vehicle: Klucel (hydroxypropylcellulose) (HPC)
[3] = endpoint: mean survival time, dose: 400.0 mg/kg/injection, schedule: Q04DX002 (ip), vehicle: Klucel (hydroxypropylcellulose) (HPC)
[4] = endpoint: mean survival time, dose: 100.0 mg/kg/injection, schedule: Q01DX001 (ip), vehicle: saline with Tween-80
[5] = endpoint: mean survival time, dose: 100.0 mg/kg/injection, schedule: Q01DX009 (ip), vehicle: saline with Tween-80
[6] = endpoint: mean survival time, dose: 200.0 mg/kg/injection, schedule: Q01DX001 (ip), vehicle: saline with Tween-80
[7] = endpoint: mean survival time, dose: 200.0 mg/kg/injection, schedule: Q01DX009 (ip), vehicle: saline with Tween-80
[8] = endpoint: mean survival time, dose: 400.0 mg/kg/injection, schedule: Q01DX001 (ip), vehicle: saline with Tween-80
[9] = endpoint: mean survival time, dose: 100.0 mg/kg/injection, schedule: Q04DX003 (ip), vehicle: saline with Tween-80
[10] = endpoint: mean survival time, dose: 200.0 mg/kg/injection, schedule: Q04DX003 (ip), vehicle: saline with Tween-80
[11] = endpoint: mean survival time, dose: 400.0 mg/kg/injection, schedule: Q04DX003 (ip), vehicle: saline with Tween-80
[12] = endpoint: mean survival time, dose: 400.0 mg/kg/injection, schedule: Q01DX009 (ip), vehicle: saline with Tween-80
[13] = endpoint: mean survival time, dose: 25.0 mg/kg/injection, schedule: Q01DX009 (ip), vehicle: saline with Tween-80
[14] = endpoint: mean survival time, dose: 50.0 mg/kg/injection, schedule: Q01DX009 (ip), vehicle: saline with Tween-80

CC1(C)CC2(OC2c2cccc(Cl)c2)C(=O)c2ccccc21 (stereo not drawn)
T/C (endpoint: mean survival time, dose: 100.0 mg/kg/injection, schedule: Q01DX009 (ip), vehicle: other): 94 % of control | T/C (endpoint: mean survival time, dose: 200.0 mg/kg/injection, schedule: Q01DX009 (ip), vehicle: other): 94 % of control | T/C (endpoint: mean survival time, dose: 400.0 mg/kg/injection, schedule: Q01DX009 (ip), vehicle: other): 91 % of control

O=C(O)c1ccc([N+](=O)[O-])cc1
T/C [1]: 93 % of control | T/C [2]: 101 % of control | T/C [3]: 86 % of control

O=C1CCC(c2ccccc2)=NN1c1ccccc1
T/C (endpoint: mean survival time, dose: 100.0 mg/kg/injection, schedule: Q04DX003 (ip), vehicle: Klucel (hydroxypropylcellulose) (HPC)): 98 % of control | T/C (endpoint: mean survival time, dose: 200.0 mg/kg/injection, schedule: Q04DX003 (ip), vehicle: Klucel (hydroxypropylcellulose) (HPC)): 96 % of control | T/C (endpoint: mean survival time, dose: 400.0 mg/kg/injection, schedule: Q04DX003 (ip), vehicle: Klucel (hydroxypropylcellulose) (HPC)): 96 % of control

CCOC(=O)/C(C(C)=N)=C(\C)O
T/C [4]: 100 % of control | T/C [5]: 101 % of control | T/C [6]: 98 % of control | T/C [7]: 104 % of control | T/C [8]: 105 % of control

CCOc1c(Cl)cc(Cl)cc1C(c1ccccc1S(=O)(=O)O)c1cc(Cl)cc(Cl)c1OCC
T/C (endpoint: mean survival time, dose: 6.25 mg/kg/injection, schedule: Q01DX009 (ip), vehicle: saline sonified): 97 % of control | T/C (endpoint: mean survival time, dose: 6.25 mg/kg/injection, schedule: Q04DX003 (ip), vehicle: saline sonified): 97 % of control | T/C (endpoint: mean survival time, dose: 12.5 mg/kg/injection, schedule: Q01DX009 (ip), vehicle: saline sonified): 96 % of control | T/C (endpoint: mean survival time, dose: 12.5 mg/kg/injection, schedule: Q04DX003 (ip), vehicle: saline sonified): 103 % of control | T/C (endpoint: mean survival time, dose: 25.0 mg/kg/injection, schedule: Q01DX009 (ip), vehicle: saline sonified): 96 % of control | T/C (endpoint: mean survival time, dose: 25.0 mg/kg/injection, schedule: Q04DX003 (ip), vehicle: saline sonified): 95 % of control

CC(=O)OCC(OC(C)=O)C(OC(C)=O)C(/C=N\Nc1ccccc1)=N/Nc1ccccc1 (stereo not drawn)
T/C (endpoint: mean survival time, dose: 37.5 mg/kg/injection, schedule: Q01DX001 (ip), vehicle: saline with Tween-80): 92 % of control | T/C (endpoint: mean survival time, dose: 75.0 mg/kg/injection, schedule: Q01DX001 (ip), vehicle: saline with Tween-80): 96 % of control | T/C (endpoint: mean survival time, dose: 150.0 mg/kg/injection, schedule: Q01DX001 (ip), vehicle: saline with Tween-80): 91 % of control

O=C(N/N=C/c1ccc(Cl)cc1)c1ccc(Cl)cc1
T/C [9]: 101 % of control | T/C [10]: 93 % of control | T/C [11]: 108 % of control

O=C(Nc1ccc(CCO)cc1)Nc1ccc(F)c([N+](=O)[O-])c1
T/C [4]: 98 % of control | T/C [5]: 93 % of control | T/C [9]: 101 % of control | T/C [6]: 96 % of control | T/C [7]: 94 % of control | T/C [10]: 98 % of control | T/C [8]: 92 % of control | T/C [12]: 93 % of control | T/C [11]: 102 % of control

C1=C[N-]c2c3c(ccc2=C1)=CC=C[N-]3.C1=C[N-]c2c3c(ccc2=C1)=CC=C[N-]3.[Cl][Ru][Cl]
T/C (endpoint: mean survival time, dose: 3.13 mg/kg/injection, schedule: Q04DX003 (ip), vehicle: water): 90 % of control | T/C (endpoint: mean survival time, dose: 6.25 mg/kg/injection, schedule: Q04DX003 (ip), vehicle: water): 90 % of control | T/C (endpoint: mean survival time, dose: 12.5 mg/kg/injection, schedule: Q04DX003 (ip), vehicle: water): 88 % of control

COc1ccc(OC)c(NC(=O)NNC(=O)CNC(=O)Nc2cccc(C)n2)c1
T/C [7]: 92 % of control | T/C [12]: 88 % of control

O=P(O)(O)c1ccc(I)cc1
T/C (endpoint: mean survival time, dose: 50.0 mg/kg/injection, schedule: Q04DX003 (ip), vehicle: saline): 94 % of control | T/C (endpoint: mean survival time, dose: 100.0 mg/kg/injection, schedule: Q04DX003 (ip), vehicle: saline): 94 % of control | T/C (endpoint: mean survival time, dose: 200.0 mg/kg/injection, schedule: Q04DX003 (ip), vehicle: saline): 98 % of control

CO[C@@]12[C@@H]3N[C@@H]3CN1C1=C(C(=O)C(NCCN)=C(C)C1=O)[C@@H]2COC(N)=O
T/C (endpoint: median survival time, dose: 0.75 mg/kg/injection, schedule: Q01DX001 (ip), vehicle: water): 123 % of control and 110 % of control | T/C (endpoint: median survival time, dose: 1.5 mg/kg/injection, schedule: Q01DX001 (ip), vehicle: water): 111 % of control | T/C (endpoint: median survival time, dose: 6.0 mg/kg/injection, schedule: Q01DX001 (ip), vehicle: water): 94 % of control

Cc1[nH]c2ccc([N+](=O)[O-])cc2c1CN(C)C
T/C (endpoint: mean survival time, dose: 75.0 mg/kg/injection, schedule: Q01DX001 (ip), vehicle: saline): 96 % of control | T/C (endpoint: mean survival time, dose: 150.0 mg/kg/injection, schedule: Q01DX001 (ip), vehicle: saline): 100 % of control

Nc1nc(-c2cc(Br)ccc2N=NN2CCCC2)nc2ccc(Br)cc12
T/C [1]: 95 % of control | T/C [2]: 113 % of control | T/C [3]: 98 % of control

Nc1ccc(S(=O)(=O)Nc2ccccc2O)cc1
T/C (endpoint: mean survival time, dose: 3.0 mg/kg/injection, schedule: Q01DX001 (ip), vehicle: saline with Tween-80): 103 % of control | T/C (endpoint: mean survival time, dose: 6.25 mg/kg/injection, schedule: Q01DX001 (ip), vehicle: saline with Tween-80): 103 % of control | T/C (endpoint: mean survival time, dose: 12.5 mg/kg/injection, schedule: Q01DX001 (ip), vehicle: saline with Tween-80): 103 % of control | T/C (endpoint: mean survival time, dose: 25.0 mg/kg/injection, schedule: Q01DX001 (ip), vehicle: saline with Tween-80): 102 % of control | T/C (endpoint: mean survival time, dose: 50.0 mg/kg/injection, schedule: Q01DX001 (ip), vehicle: saline with Tween-80): 102 % of control

O=S1(=O)N=C2C3CCN(CC3)C2C(c2ccccc2)N1 (stereo not drawn)
T/C (endpoint: mean survival time, dose: 50.0 mg/kg/injection, schedule: Q01DX001 (ip), vehicle: saline): 94 % of control | T/C (endpoint: mean survival time, dose: 100.0 mg/kg/injection, schedule: Q01DX001 (ip), vehicle: saline): 101 % of control | T/C (endpoint: mean survival time, dose: 200.0 mg/kg/injection, schedule: Q01DX001 (ip), vehicle: saline): 101 % of control

COC1CCC(/C=C(\C#N)C2CCC(C)CC2)CC1 (stereo not drawn)
T/C [13]: 93 % of control | T/C [14]: 91 % of control | T/C [5]: 90 % of control and 93 % of control | T/C [12]: 92 % of control

O=S1(=O)C2CCCCCC2(N2CCOCC2)C1C1CCCCC1 (stereo not drawn)
T/C [9]: 95 % of control | T/C [10]: 95 % of control | T/C [11]: 97 % of control

CCOC(=O)C(CCC(C)C)C(C)=O (stereo not drawn)
T/C (endpoint: mean survival time, dose: 100.0 mg/kg/injection, schedule: Q01DX005 (ip), vehicle: saline with Tween-80): 93 % of control | T/C (endpoint: mean survival time, dose: 200.0 mg/kg/injection, schedule: Q01DX005 (ip), vehicle: saline with Tween-80): 103 % of control | T/C (endpoint: mean survival time, dose: 400.0 mg/kg/injection, schedule: Q01DX005 (ip), vehicle: saline with Tween-80): 106 % of control

c1ccc(C2Cc3ccccc3C2=NC2CCCCC2)cc1 (stereo not drawn)
T/C [4]: 97 % of control | T/C [6]: 93 % of control | T/C [8]: 90 % of control

CC(CCC(C)OS(C)(=O)=O)OS(C)(=O)=O (stereo not drawn)
T/C (endpoint: mean survival time, dose: 4.0 mg/kg/injection, schedule: Q01DX009 (ip), vehicle: saline): 118 % of control and 107 % of control | T/C (endpoint: mean survival time, dose: 8.0 mg/kg/injection, schedule: Q01DX009 (ip), vehicle: saline): 110 % of control

CC(Br)C(=O)NC(Cc1ccccc1)C(=O)O (stereo not drawn)
T/C [5]: 101 % of control | T/C [7]: 97 % of control | T/C [12]: 97 % of control

CCc1ncc(C(C)(O)c2ccc(C)cc2)n1Cc1ccccc1 (stereo not drawn)
T/C [5]: 92 % of control | T/C [7]: 90 % of control | T/C [12]: 97 % of control

O=C(OC1COC(OCc2ccccc2)C(OC(=O)c2ccccc2)C1OC(=O)c1ccccc1)c1ccccc1 (stereo not drawn)
T/C (endpoint: mean survival time, dose: 6.25 mg/kg/injection, schedule: Q01DX009 (ip), vehicle: saline with Tween-80): 102 % of control | T/C (endpoint: mean survival time, dose: 12.5 mg/kg/injection, schedule: Q01DX009 (ip), vehicle: saline with Tween-80): 105 % of control | T/C [13]: 108 % of control

CC([NH-])CC(C)[NH-].O=C(O)C(=O)O.[Pt+2] (stereo not drawn)
T/C (endpoint: mean survival time, dose: 12.5 mg/kg/injection, schedule: Q04DX003 (ip), vehicle: saline with Tween-80): 169 % of control | T/C (endpoint: mean survival time, dose: 12.5 mg/kg/injection, schedule: Q04DX003 (ip), vehicle: saline): 156 % of control | T/C (endpoint: mean survival time, dose: 25.0 mg/kg/injection, schedule: Q04DX003 (ip), vehicle: saline with Tween-80): 100 % of control | T/C (endpoint: mean survival time, dose: 25.0 mg/kg/injection, schedule: Q04DX003 (ip), vehicle: saline): 186 % of control

C(=N\N=C\C1CCc2ccccc21)/c1ccco1 (stereo not drawn)
T/C [5]: 88 % of control | T/C [9]: 94 % of control | T/C [10]: 93 % of control | T/C [12]: 88 % of control | T/C [11]: 87 % of control

CC(=O)OCC#CCOC(C)=O
T/C [14]: 93 % of control
